How the values were obtained:
[1] = target: AP2-associated protein kinase 1 (Homo sapiens) (UniProt Q2M2I8); conditions: Compound concentration 1000.0 nM
[2] = test system: Tyrosine-protein kinase ABL1 (Homo sapiens), P00519 [E255K]; conditions: Compound concentration 1000.0 nM
[3] = test system: Tyrosine-protein kinase ABL1 (Homo sapiens), P00519 [Q252H]; conditions: Compound concentration 1000.0 nM
[4] = test system: ALK tyrosine kinase receptor (Homo sapiens), Q9UM73 [L1196M]; conditions: Compound concentration 1000.0 nM
[5] = target: Tyrosine-protein kinase receptor UFO (Homo sapiens) (UniProt P30530); conditions: Compound concentration 1000.0 nM
[6] = target: Tyrosine-protein kinase BTK (Homo sapiens) (UniProt Q06187); conditions: Compound concentration 1000.0 nM
[7] = target: Calcium/calmodulin-dependent protein kinase type II subunit beta (Homo sapiens) (UniProt Q13554); conditions: Compound concentration 1000.0 nM
[8] = target: Cyclin-dependent kinase 11A (Homo sapiens) (UniProt Q9UQ88); conditions: Compound concentration 1000.0 nM
[9] = target: Cyclin-dependent kinase 4 (Homo sapiens) (UniProt P11802); conditions: Compound concentration 1000.0 nM
[10] = target: Cyclin-dependent kinase-like 3 (Homo sapiens) (UniProt Q8IVW4); conditions: Compound concentration 1000.0 nM
[11] = target: Casein kinase I isoform alpha-like (Homo sapiens) (UniProt Q8N752); conditions: Compound concentration 1000.0 nM
[12] = target: Death-associated protein kinase 1 (Homo sapiens) (UniProt P53355); conditions: Compound concentration 1000.0 nM
[13] = target: Ephrin type-A receptor 7 (Homo sapiens) (UniProt Q15375); conditions: Compound concentration 1000.0 nM
[14] = target: Mitogen-activated protein kinase 7 (Homo sapiens) (UniProt Q13164); conditions: Compound concentration 1000.0 nM
[15] = target: G protein-coupled receptor kinase 4 (Homo sapiens) (UniProt P32298); conditions: Compound concentration 1000.0 nM
[16] = target: Mitogen-activated protein kinase 9 (Homo sapiens) (UniProt P45984); conditions: Compound concentration 1000.0 nM
[17] = target: Mast/stem cell growth factor receptor Kit (Homo sapiens) (UniProt P10721); conditions: Compound concentration 1000.0 nM
[18] = test system: Mast/stem cell growth factor receptor Kit (Homo sapiens), P10721 [V559D]; conditions: Compound concentration 1000.0 nM
[19] = target: T1, Dual specificity mitogen-activated protein kinase kinase 3 (Homo sapiens) (UniProt P46734); conditions: Compound concentration 1000.0 nM
T1 sequence (whole entry): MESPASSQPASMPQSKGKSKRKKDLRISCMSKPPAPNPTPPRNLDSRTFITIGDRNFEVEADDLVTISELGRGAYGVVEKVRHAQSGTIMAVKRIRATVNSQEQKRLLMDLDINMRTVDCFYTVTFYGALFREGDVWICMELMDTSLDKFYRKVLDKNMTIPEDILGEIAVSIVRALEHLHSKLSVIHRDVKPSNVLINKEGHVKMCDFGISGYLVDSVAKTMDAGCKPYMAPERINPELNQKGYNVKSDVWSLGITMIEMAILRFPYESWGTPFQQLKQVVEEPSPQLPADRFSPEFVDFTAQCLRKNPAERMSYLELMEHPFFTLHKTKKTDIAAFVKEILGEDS

[20] = target: Misshapen-like kinase 1 (Homo sapiens) (UniProt Q8N4C8); conditions: Compound concentration 1000.0 nM
[21] = target: Serine/threonine-protein kinase 38-like (Homo sapiens) (UniProt Q9Y2H1); conditions: Compound concentration 1000.0 nM
[22] = target: Mitogen-activated protein kinase 14 (Homo sapiens) (UniProt Q16539); conditions: Compound concentration 1000.0 nM
[23] = target: Mitogen-activated protein kinase 11 (Homo sapiens) (UniProt Q15759); conditions: Compound concentration 1000.0 nM
[24] = target: Serine/threonine-protein kinase PAK 2 (Homo sapiens) (UniProt Q13177); conditions: Compound concentration 1000.0 nM
[25] = target: Serine/threonine-protein kinase PAK 5 (Homo sapiens) (UniProt Q9P286); conditions: Compound concentration 1000.0 nM
[26] = target: Platelet-derived growth factor receptor beta (Homo sapiens) (UniProt P09619); conditions: Compound concentration 1000.0 nM
[27] = target: Ribosomal protein S6 kinase alpha-3 (Homo sapiens) (UniProt P51812); conditions: Compound concentration 1000.0 nM
[28] = target: Serine/threonine-protein kinase 35 (Homo sapiens) (UniProt Q8TDR2); conditions: Compound concentration 1000.0 nM
[29] = target: Angiopoietin-1 receptor (Homo sapiens) (UniProt Q02763); conditions: Compound concentration 1000.0 nM
[30] = target: Non-receptor tyrosine-protein kinase TYK2 (Homo sapiens) (UniProt P29597); conditions: Compound concentration 1000.0 nM
[31] = target: Serine/threonine-protein kinase ULK2 (Homo sapiens) (UniProt Q8IYT8); conditions: Compound concentration 1000.0 nM
[32] = target: Serine/threonine-protein kinase 25 (Homo sapiens) (UniProt O00506); conditions: Compound concentration 1000.0 nM
[33] = target: D(3) dopamine receptor (Homo sapiens) (UniProt P35462); conditions: Compound concentration 10.0 uM
[34] = target: T2, Alpha-1B adrenergic receptor (Homo sapiens) (UniProt P35368); conditions: Compound concentration 10.0 uM
T2 sequence (whole entry): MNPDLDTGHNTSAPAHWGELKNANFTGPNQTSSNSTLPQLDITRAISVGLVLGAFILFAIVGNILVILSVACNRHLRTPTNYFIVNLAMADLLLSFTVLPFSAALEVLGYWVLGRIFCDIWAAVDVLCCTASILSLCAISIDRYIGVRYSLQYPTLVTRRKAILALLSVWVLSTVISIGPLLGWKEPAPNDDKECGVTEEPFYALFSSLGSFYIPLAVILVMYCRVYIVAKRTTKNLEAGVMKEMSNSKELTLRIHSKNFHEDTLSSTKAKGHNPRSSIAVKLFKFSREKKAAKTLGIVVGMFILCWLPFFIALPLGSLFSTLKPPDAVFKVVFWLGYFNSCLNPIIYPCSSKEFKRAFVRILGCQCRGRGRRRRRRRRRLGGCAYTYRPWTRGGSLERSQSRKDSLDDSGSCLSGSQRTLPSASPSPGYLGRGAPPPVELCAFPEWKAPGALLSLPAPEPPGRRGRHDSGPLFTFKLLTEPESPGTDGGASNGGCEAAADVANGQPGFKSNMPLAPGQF

Ribosomal protein S6 kinase alpha-3 (Homo sapiens), sequence (P51812 whole entry): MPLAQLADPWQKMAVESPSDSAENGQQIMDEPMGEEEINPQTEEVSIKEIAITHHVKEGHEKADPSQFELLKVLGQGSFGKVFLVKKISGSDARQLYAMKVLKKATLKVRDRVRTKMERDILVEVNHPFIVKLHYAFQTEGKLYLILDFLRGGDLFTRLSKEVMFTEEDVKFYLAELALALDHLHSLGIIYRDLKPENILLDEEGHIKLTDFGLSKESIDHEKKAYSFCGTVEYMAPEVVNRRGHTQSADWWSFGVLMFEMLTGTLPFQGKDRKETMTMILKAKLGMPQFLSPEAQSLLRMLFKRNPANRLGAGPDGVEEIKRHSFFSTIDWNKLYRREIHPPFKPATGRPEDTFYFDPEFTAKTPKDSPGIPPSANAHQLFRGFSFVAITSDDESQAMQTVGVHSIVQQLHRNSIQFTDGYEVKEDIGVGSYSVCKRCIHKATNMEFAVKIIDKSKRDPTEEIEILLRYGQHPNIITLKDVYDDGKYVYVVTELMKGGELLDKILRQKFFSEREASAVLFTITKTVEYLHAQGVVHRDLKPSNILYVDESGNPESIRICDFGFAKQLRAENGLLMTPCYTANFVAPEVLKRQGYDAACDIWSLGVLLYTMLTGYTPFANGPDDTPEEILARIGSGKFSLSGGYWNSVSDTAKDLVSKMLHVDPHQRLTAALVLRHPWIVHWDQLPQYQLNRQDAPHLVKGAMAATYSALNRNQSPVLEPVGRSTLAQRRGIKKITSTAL
Tyrosine-protein kinase receptor UFO (Homo sapiens), sequence (P30530 whole entry): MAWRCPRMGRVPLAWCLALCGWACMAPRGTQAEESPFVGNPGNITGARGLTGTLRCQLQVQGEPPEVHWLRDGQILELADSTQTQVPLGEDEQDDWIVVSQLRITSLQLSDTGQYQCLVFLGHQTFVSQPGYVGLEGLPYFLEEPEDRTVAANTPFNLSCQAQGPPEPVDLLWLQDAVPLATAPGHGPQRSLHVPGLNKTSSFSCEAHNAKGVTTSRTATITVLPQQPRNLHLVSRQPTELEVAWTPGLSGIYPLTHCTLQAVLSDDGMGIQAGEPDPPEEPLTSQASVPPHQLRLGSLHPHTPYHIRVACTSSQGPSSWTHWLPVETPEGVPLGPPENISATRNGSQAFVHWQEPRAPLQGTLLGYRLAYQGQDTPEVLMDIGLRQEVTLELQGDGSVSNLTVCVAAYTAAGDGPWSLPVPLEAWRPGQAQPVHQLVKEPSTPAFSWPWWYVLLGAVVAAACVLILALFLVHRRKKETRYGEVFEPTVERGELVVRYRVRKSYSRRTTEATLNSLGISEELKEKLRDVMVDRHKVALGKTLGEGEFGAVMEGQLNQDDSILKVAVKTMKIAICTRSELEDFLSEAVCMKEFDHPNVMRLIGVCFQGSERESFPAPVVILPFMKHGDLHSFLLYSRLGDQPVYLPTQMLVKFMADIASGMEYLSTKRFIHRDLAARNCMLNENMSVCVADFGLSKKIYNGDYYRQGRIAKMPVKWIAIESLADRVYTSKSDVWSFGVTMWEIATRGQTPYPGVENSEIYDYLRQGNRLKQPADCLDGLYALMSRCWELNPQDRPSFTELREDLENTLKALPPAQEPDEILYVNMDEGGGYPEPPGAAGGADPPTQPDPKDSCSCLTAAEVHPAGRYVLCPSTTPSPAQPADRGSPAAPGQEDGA
G protein-coupled receptor kinase 4 (Homo sapiens), sequence (P32298 whole entry, looked up): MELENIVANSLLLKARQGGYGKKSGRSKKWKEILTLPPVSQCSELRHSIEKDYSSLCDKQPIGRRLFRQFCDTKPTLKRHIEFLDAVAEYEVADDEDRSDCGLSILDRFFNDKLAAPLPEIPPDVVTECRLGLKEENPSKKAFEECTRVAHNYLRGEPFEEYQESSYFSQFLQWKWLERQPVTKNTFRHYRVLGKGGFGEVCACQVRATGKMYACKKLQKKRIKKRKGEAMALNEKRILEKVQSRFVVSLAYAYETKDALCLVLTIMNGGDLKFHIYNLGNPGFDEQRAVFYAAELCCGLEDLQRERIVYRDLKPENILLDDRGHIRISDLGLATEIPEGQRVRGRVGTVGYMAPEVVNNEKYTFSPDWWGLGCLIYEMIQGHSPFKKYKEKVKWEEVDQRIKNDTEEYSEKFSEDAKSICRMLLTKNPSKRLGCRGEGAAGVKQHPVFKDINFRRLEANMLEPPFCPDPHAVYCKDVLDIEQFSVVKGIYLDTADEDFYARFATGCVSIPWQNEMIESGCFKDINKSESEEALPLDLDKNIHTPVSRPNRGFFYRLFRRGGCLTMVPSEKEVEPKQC
Death-associated protein kinase 1 (Homo sapiens), sequence (P53355 whole entry, looked up): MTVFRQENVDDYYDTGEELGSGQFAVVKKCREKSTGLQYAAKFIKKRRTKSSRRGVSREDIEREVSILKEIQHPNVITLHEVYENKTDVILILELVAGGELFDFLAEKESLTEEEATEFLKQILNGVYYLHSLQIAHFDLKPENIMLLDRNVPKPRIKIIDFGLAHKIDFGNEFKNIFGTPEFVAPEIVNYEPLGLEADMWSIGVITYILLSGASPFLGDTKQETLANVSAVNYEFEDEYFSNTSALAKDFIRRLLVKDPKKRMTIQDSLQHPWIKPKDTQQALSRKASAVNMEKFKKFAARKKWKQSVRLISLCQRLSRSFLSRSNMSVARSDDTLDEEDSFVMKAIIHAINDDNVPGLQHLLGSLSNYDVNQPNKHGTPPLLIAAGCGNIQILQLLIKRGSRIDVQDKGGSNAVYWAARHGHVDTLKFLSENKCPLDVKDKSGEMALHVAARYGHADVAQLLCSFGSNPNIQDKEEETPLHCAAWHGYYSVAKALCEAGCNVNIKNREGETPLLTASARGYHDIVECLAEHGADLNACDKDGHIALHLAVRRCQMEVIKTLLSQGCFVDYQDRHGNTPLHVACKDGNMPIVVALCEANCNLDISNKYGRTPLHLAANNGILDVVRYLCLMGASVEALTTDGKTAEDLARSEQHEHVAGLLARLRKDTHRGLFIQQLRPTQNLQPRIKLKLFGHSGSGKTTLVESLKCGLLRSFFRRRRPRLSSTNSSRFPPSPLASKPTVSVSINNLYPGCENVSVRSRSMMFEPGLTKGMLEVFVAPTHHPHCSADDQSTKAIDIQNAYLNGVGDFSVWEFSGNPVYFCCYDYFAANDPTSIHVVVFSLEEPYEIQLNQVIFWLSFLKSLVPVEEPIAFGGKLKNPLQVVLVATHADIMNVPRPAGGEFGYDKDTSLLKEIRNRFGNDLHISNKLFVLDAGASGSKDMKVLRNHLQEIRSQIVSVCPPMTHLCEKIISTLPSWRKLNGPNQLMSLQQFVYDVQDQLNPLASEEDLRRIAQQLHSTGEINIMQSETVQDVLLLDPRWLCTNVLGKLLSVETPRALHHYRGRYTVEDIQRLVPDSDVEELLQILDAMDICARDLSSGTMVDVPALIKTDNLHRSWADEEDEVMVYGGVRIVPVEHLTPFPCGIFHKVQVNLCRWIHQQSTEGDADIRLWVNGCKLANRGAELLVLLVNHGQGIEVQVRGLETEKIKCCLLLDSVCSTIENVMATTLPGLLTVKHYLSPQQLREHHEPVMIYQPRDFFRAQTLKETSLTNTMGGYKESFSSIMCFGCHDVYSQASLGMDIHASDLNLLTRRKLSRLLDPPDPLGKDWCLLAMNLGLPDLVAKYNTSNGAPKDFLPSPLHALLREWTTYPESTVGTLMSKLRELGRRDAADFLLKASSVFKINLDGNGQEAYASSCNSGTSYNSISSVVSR
Calcium/calmodulin-dependent protein kinase type II subunit beta (Homo sapiens), sequence (Q13554 whole entry): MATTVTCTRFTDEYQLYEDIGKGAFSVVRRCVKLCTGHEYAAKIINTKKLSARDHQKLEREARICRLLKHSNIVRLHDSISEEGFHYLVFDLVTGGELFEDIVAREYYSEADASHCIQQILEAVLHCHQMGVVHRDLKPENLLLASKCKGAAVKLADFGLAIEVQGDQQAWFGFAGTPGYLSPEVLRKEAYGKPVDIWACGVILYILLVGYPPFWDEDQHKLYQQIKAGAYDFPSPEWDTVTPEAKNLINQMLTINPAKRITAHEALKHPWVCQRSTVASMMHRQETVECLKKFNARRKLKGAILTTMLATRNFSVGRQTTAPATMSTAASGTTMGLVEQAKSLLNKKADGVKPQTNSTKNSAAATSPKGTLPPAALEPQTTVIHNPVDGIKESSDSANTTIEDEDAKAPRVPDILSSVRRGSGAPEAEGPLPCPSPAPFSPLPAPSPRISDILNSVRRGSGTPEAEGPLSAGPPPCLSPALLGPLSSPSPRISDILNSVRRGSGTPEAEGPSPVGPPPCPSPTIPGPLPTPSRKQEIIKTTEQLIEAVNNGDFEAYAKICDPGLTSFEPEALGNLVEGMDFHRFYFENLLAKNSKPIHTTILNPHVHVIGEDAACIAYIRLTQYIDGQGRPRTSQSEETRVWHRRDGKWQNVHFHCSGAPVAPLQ
Casein kinase I isoform alpha-like (Homo sapiens), sequence (Q8N752 whole entry, canonical isoform): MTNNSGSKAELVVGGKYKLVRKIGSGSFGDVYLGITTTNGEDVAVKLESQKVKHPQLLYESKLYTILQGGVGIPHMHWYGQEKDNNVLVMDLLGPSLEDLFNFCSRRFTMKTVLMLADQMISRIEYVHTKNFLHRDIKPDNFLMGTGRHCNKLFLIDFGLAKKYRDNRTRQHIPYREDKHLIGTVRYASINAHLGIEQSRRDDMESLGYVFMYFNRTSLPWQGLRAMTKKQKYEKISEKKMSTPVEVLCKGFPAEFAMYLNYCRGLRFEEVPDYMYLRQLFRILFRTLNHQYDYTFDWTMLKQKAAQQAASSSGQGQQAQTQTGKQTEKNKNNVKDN
Mitogen-activated protein kinase 11 (Homo sapiens), sequence (Q15759 whole entry): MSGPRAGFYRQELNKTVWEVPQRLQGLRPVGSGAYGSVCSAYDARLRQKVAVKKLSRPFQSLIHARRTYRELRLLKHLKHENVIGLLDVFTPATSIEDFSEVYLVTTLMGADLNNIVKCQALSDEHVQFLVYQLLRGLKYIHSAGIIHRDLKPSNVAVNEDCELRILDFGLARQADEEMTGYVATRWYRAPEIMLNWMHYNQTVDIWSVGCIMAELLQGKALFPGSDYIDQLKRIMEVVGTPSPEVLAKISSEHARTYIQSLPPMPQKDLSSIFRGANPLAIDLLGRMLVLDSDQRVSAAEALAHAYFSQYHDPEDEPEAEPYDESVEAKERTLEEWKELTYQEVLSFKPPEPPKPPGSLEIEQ

CN(C)C(=O)Cn1cc(-c2nc(C3(c4ccc(-c5cnc(N)nc5)cc4)CC3)no2)cn1 [BI 0153]
inactive: residual activity [1] 100% | residual activity [2] 100% | residual activity [4] 92% | residual activity [5] 93% | residual activity [6] 82% | residual activity [7] 94% | residual activity [8] 89% | residual activity [9] 67% | residual activity [10] 80% | residual activity [11] 98% | residual activity [12] 100% | residual activity [13] 92% | residual activity [14] 97% | residual activity [15] 100% | residual activity [16] 81% | residual activity [17] 93% | residual activity [18] 100% | residual activity [19] 71% | residual activity [20] 91% | residual activity [21] 81% | residual activity [22] 100% | residual activity [23] 86% | residual activity [24] 100% | residual activity [25] 88% | residual activity [26] 94% | residual activity [27] 85% | residual activity [28] 94% | residual activity [29] 88% | residual activity [30] 90% | residual activity [31] 78% | residual activity [32] 100% | inhibition [33] -2.44% | inhibition [34] 5.11%
active: residual activity [3] 48%

CN(C)C(=O)Cn1cc(-c2nc([C@@](C)(c3ccc(-c4cnc(N)nc4)cc3)C3CC3)no2)cn1 [BI 665915]
inactive: residual activity [1] 100% | residual activity [2] 95% | residual activity [4] 90% | residual activity [5] 98% | residual activity [6] 73% | residual activity [7] 96% | residual activity [8] 100% | residual activity [9] 94% | residual activity [10] 94% | residual activity [11] 100% | residual activity [12] 82% | residual activity [13] 98% | residual activity [14] 90% | residual activity [15] 86% | residual activity [16] 75% | residual activity [17] 87% | residual activity [18] 91% | residual activity [19] 83% | residual activity [20] 85% | residual activity [21] 91% | residual activity [22] 90% | residual activity [23] 97% | residual activity [24] 90% | residual activity [25] 100% | residual activity [26] 82% | residual activity [27] 100% | residual activity [28] 88% | residual activity [29] 100% | residual activity [30] 65% | residual activity [31] 100% | residual activity [32] 100% | inhibition [33] -5.97% | inhibition [34] 2.84%
active: residual activity [3] 0%

Source: ChEMBL document CHEMBL4507276 (2021)
